Where two headings read alike, the source gives them in different places. Oligonucleotides are written 5' to 3', each unit as a sugar letter and its base; * is a phosphorothioate linkage, no mark a phosphodiester; rarer units and linkages stand in square brackets, end groups in braces. Plain capitals give the bases only. [PEG] = polyethylene glycol spacer within the chain; [invdT] = inverted (3'-3') thymidine; d = 2'-deoxy (DNA); m = 2'-O-methyl; r = 2'-OH (RNA); f = 2'-fluoro
B1: AMX201.H4: rRfY aptamer clone (nucleic acid)
chain: rGrGrArGfCrGfCrAfCfUfCrArGfCfCrAfCfUrArAfCrGrGfUfUrGrAfUfCfUfCrArGrGrAfCfUrArAfUrArGfUfCrArAfCrArArGrGrAfUrGfCrGfUfUfUfCrGrAfCfCfUfCfUfCfUrGfCfUrArGfC
B2: AMX201.H11: rRfY aptamer clone (nucleic acid)
chain: rGrGrArGfCrGfCrAfCfUfCrArGfCfCrAfCfCfCfUrGfUfCrGfUfCfUfUfUfUrGrGfUrArGfUfCrArGfCfCrArArArArGfCfUrArGfUfUrGrGfUfUrGfUfUfUfCrGrAfCfCfUfCfUfCfUrGfCfUrArGfC
B3: AMX201.D3: rRfY aptamer clone (nucleic acid)
chain: rGrGrArGfCrGfCrAfCfUfCrArGfCfCrAfCrGfCfCfCrAfCrGfUfCrArArAfUfUrAfUrArGfUfCfUrAfCfUfUfUrGrAfUrGfUrGfCfCfCrGfUrGrGfUfUfUfCrGrAfCfCfUfCfUfCfUrGfCfUrArGfC
B4: AMX201.B3: rRfY aptamer clone (nucleic acid)
chain: rGrGrArGfCrGfCrAfCfUfCrArGfCfCrAfCrArGrArGfCfCfCfUrGrArGfUrGfUrAfUrGrAfUfCrGfCfCrGrArGrAfUfCfUrAfUfCrGrAfUrGfCfUfUfUfUfUfCrGrAfCfCfUfCfUfCfUrGfCfUrArGfC
B5: AMX201.D4: rRfY aptamer clone (nucleic acid)
chain: rGrGrArGfCrGfCrAfCfUfCrArGfCfCrAfCfUrGrGrGrGfCfUrGrAfUfCfUfCrGfCrAfCrGrAfUrArGfUfUfCrGfUrGfUfCrArArGrGrAfUrGfCrGfUfUfUfUfCrGrAfCfCfUfCfUfCfUrGfCfUrArGfC
B6: AMX201.B11: rRfY aptamer clone (nucleic acid)
chain: rGrGrArGfCrGfCrAfCfUfCrArGfCfCrAfCrAfCfCrGrArGrGfCfUrGrGrAfUrAfUfCfUrAfCrGrArGrArGrGrArArGfUrGfCfUrGfCfUfUrGrArAfUfUfUfCrGrAfCfCfUfCfUfCfUrGfCfUrArGfC
B7: AMX201.D10: rRfY aptamer clone (nucleic acid)
chain: rGrGrArGfCrGfCrAfCfUfCrArGfCfCrAfCrAfCfUrGrArGrGfCfUrGrGrAfUrAfUfCfUrAfCrGrArGrArGrGrArArGfUrGfCfUrGfCfUfUrGrGrAfUfUfUfCrGrAfCfCfUfCfUfCfUrGfCfUrArGfC

Legend:
[1] = tested on: full length human vWF (SEQ ID NO 7); assay: dot blot KD determination and extent of binding, full length human vWF; conditions: for % binding @ 100 nM vWF: extent of aptamer binding at 100 nM full length human vWF; for Kd: full length human vWF, read-out: KD;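 as to all read-outs here: dot blot binding of aptamers to full length human vWF across a protein titration, incubated 30 minutes at room temperature in 1x DPBS with BSA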
Protocol: Based on this initial screen, KDs were determined for 3 of the vWF dependent binding sequences using the dot blot assay. […] A 12 point protein titration was used in the dot blot assay (300 nM, 100 nM, 30 nM, 10 nM, 3 nM, 1 nM, 300 pM, 100 pM, 30 pM, 10 pM, 3 pM, 0 pM) in 1×DPBS plus 0.1 mg/mL BSA at room temperature for 30 minutes.
An 8 point protein titration was used in the dot blot binding assay (100n M, 30 nM, 10 nM, 3 nM, 1 nM, 300 pM, 100 pM, 0 pM)) in 1× Dulbecco's PBS containing 0.1 BSA (final volume of 50 uL) for 30 minutes at room temperature.

[2] = target: human vWF A1 domain (SEQ ID NO 5) (Homo sapiens, UniProt P04275, T1381A); assay: 3-point dot blot screen, human vWF A1 domain; format: binding; conditions: rRfY aptamers; 100 nM human vWF A1 domain; ratio of fraction bound with target to fraction bound without target
Sequence of human vWF A1 domain (SEQ ID NO 5) (P04275 with tags, fused parts or gaps T1381A): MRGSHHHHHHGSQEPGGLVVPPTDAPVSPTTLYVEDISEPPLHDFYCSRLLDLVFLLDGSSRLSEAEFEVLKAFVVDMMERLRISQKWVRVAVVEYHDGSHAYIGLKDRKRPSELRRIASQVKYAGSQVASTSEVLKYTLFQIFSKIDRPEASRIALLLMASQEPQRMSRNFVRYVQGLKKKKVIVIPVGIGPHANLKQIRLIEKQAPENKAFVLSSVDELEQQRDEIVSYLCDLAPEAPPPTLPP
Source text: (§1) When a significant positive ratio of binding of RNA in the presence of human or rabbit vWF A1 domain versus in the absence of protein was seen, the pools were cloned using the TOPO TA cloning kit (Invitrogen, Cat. #45-0641, Carlsbad, Calif.) according to the manufacturer's instructions. Round 9 and 12 pool templates were cloned and sequenced (125 total sequences), producing 48 unique clones. All unique clones were transcribed, desalted, 5-^32P end-labeled, and assayed in a 3-point dot blot screen (no protein target control, 100 nM human vWF A1 domain (SEQ ID NO 5, FIG. 3), or 100 nM rabbit vWF A1 domain (SEQ ID NO 6, FIG. 3). The data is presented in the third and fourth columns of Table 4 below as the ratio of the fraction of the aptamer bound to the nitrocellulose in the presence of the target protein to the fraction of aptamer bound in the absence of the target protein.
(§2) When a significant positive ratio of binding of RNA in the presence of human or rabbit vWF A1 domain (SEQ ID NOS 4 and 6, respectively) versus in the absence of protein was seen, the pools were cloned using the TOPO TA cloning kit (Invitrogen Cat. #45-0641, Carlsbad, Calif.) according to the manufacturer's instructions. Round 9 and 12 pool templates were cloned and sequenced (185 total sequences), producing 78 unique clones within 3 sequence families. All unique clones were transcribed, desalted, 5-^32P end-labeled, and assayed in a 3-point dot blot screen (no protein target control, 100 nM human vWF A1 domain (SEQ ID NO 5), or 100 nM rabbit vWF A1 domain (SEQ ID NO 6). The data are presented in the third and fourth columns of Table 9 below as the ratio of the fraction of the aptamer bound to the nitrocellulose in the presence of the target protein to the fraction of aptamer bound in the absence of the target protein. Of the three sequence families, members of Family #1 and #2 and two individual, non-family aptamers, bound to both human vWF domain A1 (SEQ ID NO 5) and rabbit vWF domain A1 (SEQ ID NO 6).
(§3) All unique clones were assayed in a 3-point dot blot screen (no protein target control, 100 nM human vWF A1 domain (SEQ ID NO 5), or 100 nM rabbit vWF A1 domain (SEQ ID NO 6). The data are presented in the third and fourth columns of Table 14 below as the ratio of the fraction of the aptamer bound to the nitrocellulose in the presence of the target protein to the fraction of aptamer bound in the absence of the target protein.

[3] = tested on: rabbit vWF A1 domain (SEQ ID NO 6); assay: 3-point dot blot screen, rabbit vWF A1 domain; format: binding; conditions: rRfY aptamers; 100 nM rabbit vWF A1 domain; ratio of fraction bound with target to without
Sequence of rabbit vWF A1 domain (SEQ ID NO 6) (as listed by the source): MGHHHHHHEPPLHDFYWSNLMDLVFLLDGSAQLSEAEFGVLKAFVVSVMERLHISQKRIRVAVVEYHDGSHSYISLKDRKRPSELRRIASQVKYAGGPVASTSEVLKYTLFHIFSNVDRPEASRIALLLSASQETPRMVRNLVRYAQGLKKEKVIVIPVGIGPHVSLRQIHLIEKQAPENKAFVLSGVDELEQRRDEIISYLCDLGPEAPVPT
Source text: as §1, §2, §3
When a significant positive ratio of binding of DNA in the presence of human or rabbit vWF A1 domain versus in the absence of protein was seen, the pools were cloned using the TOPO TA cloning kit (Invitrogen Cat. #45-0641, Carlsbad, Calif.) according to the manufacturer's instructions. Round 7 and 11 pool templates were cloned and sequenced (218 total sequences), producing 146 unique clones within 12 sequence families of which sequences from six families show vWF target binding activity. All unique clones were assayed twice in a 3-point dot blot screen (no protein target control, 20 nM full length human vWF (Calbiochem Cat. #681300, La Jolla, Calif.), or 20 nM rabbit vWF A1 domain. The data is presented in the third and fourth columns of Table 17 below as the ratio of the fraction of the aptamer bound to the nitrocellulose in the presence of the target protein to the fraction of aptamer bound in the absence of the target protein.

| Molecule | % binding @ 100 nM vWF ([1]; Phase 4 and 5 modification) | Kd ([1]; Phase 4 and 5 modification) | % binding @ 100 nM vWF ([1]; Phase 2 modification) | Kd ([1]; Phase 2 modification) | Screen- Human/No Protein [2] | Screen- Rabbit/No Protein [3] |
| --- | --- | --- | --- | --- | --- | --- |
| mCmGmUdGdCdAmGmUmGmCmCPEGmGmGmCdCmG-s-TmGdCdGdGTmGmCdCmUdCdCmGmUmCmAmCmG-3T (mCmGmUdGdCdAmGmUmGmCmC[PEG]mGmGmCdCmG*dTmGdCdGdGdTmGmCdCmUdCdCmGmUmCmAmCmG[invdT]; aptamer) [ARC1532] | 19.3% | 2.6 nM | – | – | – | – |
| mCmGmUdGdCdAmGmUmGmCmCmUmUmCmGmGmCdCmG-s-TmGdCdGdGTmGmCdCmUdCdCmGmUmCmAmCmG-3T (mCmGmUdGdCdAmGmUmGmCmCmUmUmCmGmGmCdCmG*dTmGdCdGdGdTmGmCdCmUdCdCmGmUmCmAmCmG[invdT]; aptamer) [ARC1529] | 22.6% | 12.3 nM | – | – | – | – |
| mCmGmUdGdCdAmGmUmGmCmCmUmUmUmGmGmCdCmG-s-TmGdCdGdGTmGmCdCmUdCdCmGmUmCmAmCmG-3T (mCmGmUdGdCdAmGmUmGmCmCmUmUmUmGmGmCdCmG*dTmGdCdGdGdTmGmCdCmUdCdCmGmUmCmAmCmG[invdT]; aptamer) [ARC1530] | 19.2% | 15 nM | – | – | – | – |
| mGmCmGmUdGdCdAmGmUmGmCmCPEGmGmGmCdCmG-s-TmGdCdGdGTmGmCdCmUdCdCmGmUdCmAmCmGmC-3T (mGmCmGmUdGdCdAmGmUmGmCmC[PEG]mGmGmCdCmG*dTmGdCdGdGdTmGmCdCmUdCdCmGmUdCmAmCmGmC[invdT]) [ARC1527] | 14.1% | 3.4 nM | – | – | – | – |
| mGmCmGmUdGdCdAmGmUmGmCmCPEGmGmGmCdCmG-s-TmGdCdGdGTmGmCdCmUdCdCmGmUmCmAmCmGmC-3T (mGmCmGmUdGdCdAmGmUmGmCmC[PEG]mGmGmCdCmG*dTmGdCdGdGdTmGmCdCmUdCdCmGmUmCmAmCmGmC[invdT]; aptamer) [ARC1528] | 10.2% | 4.2 nM | – | – | – | – |
| mGmCmGmUdGdCdAmGmUmGmCmCmUmUmCmGmGmCdCmG-s-TmGdCdGdGTmGmCdCmUdCdCmGmUmCmAmCmGmC-3T (mGmCmGmUdGdCdAmGmUmGmCmCmUmUmCmGmGmCdCmG*dTmGdCdGdGdTmGmCdCmUdCdCmGmUmCmAmCmGmC[invdT]) [ARC1524] | 26.5% | 5.7 nM | – | – | – | – |
| mGmCmGmUdGdCdAmGmUmGmCmCmUmUmUmGmGmCdCmG-s-TmGdCdGdGTmGmCdCmUdCdCmGmUmCmAmCmGmC-3T (mGmCmGmUdGdCdAmGmUmGmCmCmUmUmUmGmGmCdCmG*dTmGdCdGdGdTmGmCdCmUdCdCmGmUmCmAmCmGmC[invdT]) [ARC1526] | 29.0% | 4.7 nM | – | – | – | – |
| mGmGmCmGmU-s-dG-s-dC-s-dAmGmUmGmCmCmUmUmCmGmGmC-s-dCmG-s-TmG-s-dC-s-dG-s-dG-s-TmGmC-s-dCmU-s-dC-s-dCmGmUmCmAmCmGmCmC-3T (mGmGmCmGmU*dG*dC*dAmGmUmGmCmCmUmUmCmGmGmC*dCmG*dTmG*dC*dG*dG*dTmGmC*dCmU*dC*dCmGmUmCmAmCmGmCmC[invdT]) [ARC1345] | – | – | 29% | 12.1 nM | – | – |
| mGmGmCmGmUdG-s-dC-s-dAmGmUmGmCmCmUmUmCmGmGmC-s-dCmGTmGdC-s-dG-s-dGTmGmCdCmUdC-s-dCmGmUmCmAmCmGmCmC-3T (mGmGmCmGmUdG*dC*dAmGmUmGmCmCmUmUmCmGmGmC*dCmGdTmGdC*dG*dGdTmGmCdCmUdC*dCmGmUmCmAmCmGmCmC[invdT]) [ARC1344] | – | – | 17% | 4.8 nM | – | – |
| mGmGmCmGmUdG-s-dCdAmGmUmGmCmCmUmUmCmGmGmC-s-dCmGTmGdCdG-s-dGTmGmCdCmUdC-s-dCmGmUmCmAmCmGmCmC-3T (mGmGmCmGmUdG*dCdAmGmUmGmCmCmUmUmCmGmGmC*dCmGdTmGdCdG*dGdTmGmCdCmUdC*dCmGmUmCmAmCmGmCmC[invdT]) [ARC1343] | – | – | 21% | 23.9 nM | – | – |
| mGmGmCmGmUdGdCdAdGTdGdCdCTTdCdGdGdCdCdGTdGdCdGdGTdGdCdCTdCdCdGTdCmAmCmGmCmC-3T (mGmGmCmGmUdGdCdAdGdTdGdCdCdTdTdCdGdGdCdCdGdTdGdCdGdGdTdGdCdCdTdCdCdGdTdCmAmCmGmCmC[invdT]; aptamer) [ARC1338] | – | – | 21% | 7.4 nM | – | – |
| mGmGmCmGmUdGdCdAmGmUmGmCmCmUmUmCmGmGmCdCdGTdGdCdGdGTdGdCdCTdCdCdGTdCmAmCmGmCmC-3T (mGmGmCmGmUdGdCdAmGmUmGmCmCmUmUmCmGmGmCdCdGdTdGdCdGdGdTdGdCdCdTdCdCdGdTdCmAmCmGmCmC[invdT]; aptamer) [ARC1341] | – | – | 26% | 22.5 nM | – | – |
| mGmGmCmGmUdGdCdAmGmUmGmCmCmUmUmCmGmGmCdCmGTmGdCdGdGTmGmCdCmUdCdCmGmUmCmAmCmGmCmC-3T (mGmGmCmGmUdGdCdAmGmUmGmCmCmUmUmCmGmGmCdCmGdTmGdCdGdGdTmGmCdCmUdCdCmGmUmCmAmCmGmCmC[invdT]; aptamer) [ARC1342] | – | – | 33% | 15.6 nM | – | – |
| B1 | – | – | – | – | 1.79 | 1.86 |
| B2 | – | – | – | – | 1.75 | 1.40 |
| B3 | – | – | – | – | 1.76 | 1.52 |
| B4 | – | – | – | – | 1.69 | 1.64 |
| B5 | – | – | – | – | 2.23 | 2.46 |
| B6 | – | – | – | – | 1.55 | 1.52 |
| B7 | – | – | – | – | 1.59 | 1.52 |

From US7998940B2, “Aptamers to von Willebrand factor and their use as thrombotic disease therapeutics” (Archemix Corp., priority 2004, dated 2011)
